Patent publication US20250250559A1, “METHOD TO ANALYZE AND OPTIMIZE GENE EDITING MODULES AND DELIVERY APPROACHES” (Hoffmann-La Roche Inc., priority 2016, published 2025)
“And” between values parts separate entries of the source, which are not always exact repeats. Equal values may be shown once. “Also recorded” adds a separate entry of the source. Marks after values point to notes of the source that are not given here.

Tests used:
Format in all cases: cell-based, human
MCF-7 cells [1] = assay: DT resistant colony count of MCF-7 exposed to SCR7 and/or RS-1 during SpCas9-mediated DPH1 editing; settings: SpCas9 Dph1 gRNA (20 mer); compound added 18 hrs after transfection; RS-1 8 μM, SCR7 1 μM
MCF7 = assay: Viability (Promega CTG) assay; settings: 1 μM Scr7, 8 μM RS-1, 1 μM+8 μM combined
Description: The RAD51-stimulatory compound 1 (RS-1) was applied to modulate homologous recombination (HR) during gene editing. RS-1 (Sigma Aldrich) was dissolved in DMSO to generate a stock solution of 10 mg/ml, which was diluted in RPMI medium just before application to cells.
The DNA ligase IV inhibitor SCR7 was applied to modulate non-homologous end joining (NHEJ) during gene editing. SCR7 (Sigma) was dissolved in DMSO to generate a stock solution of 10 mg/ml, which was diluted in RPMI medium just before application to cells.

MCF-7 cells [2] = assay: DT resistant colony count of MCF-7 exposed to SCR7 and/or RS-1 during SpCas9-mediated DPH1 editing; settings: for mean DTr colonies #seeded cells: 40,000: SpCas9 Dph1 gRNA (20 mer), RS-1 8 μM, SCR7 1 μM; for mean DTr colonies #seeded cells: 40,000 / gRNA specific DT-r colonies (gRNA-scRNA) / Mean DT resistant colonies (4 × 40.000 seeded cells): compound added 4 hrs before transfection; for Mean DT resistant colonies (4 × 40.000 seeded cells): editing entity SpCas9-scRNA
Description: (§1) To evaluate and quantify the influence of DNA repair modulators on efficiency and specificity of gene editing, CRISPR/SpCAS9 and DPH1 targeting 20 mer gRNA was combined with compounds that modulate DNA repair mechanisms. The inhibitor Scr7 was applied either 4 hrs before transfection or 18 hrs after transfection of the gene editing modules until […] after transfection to inhibit DNA ligase IV.
SCR7 (1 μM final conc.) or RS-1 (8 μM final conc.) or SCR7+RS-1 (1 μM+8 μM final conc.) were added to MCF7 cells 4 hrs before transfection of the gene editing modules in the ‘early exposure’ setting. For ‘late exposure’ SCR7 (8 µM final conc.) or RS-1 (1 μM final conc.) were added to MCF7 cells 18 hrs after transfection. In both settings, cells were exposed to the modulators until 96 hr after transfection, i.e. ‘early exposure’ consisted of a treatment for a total of 100 hrs, ‘late exposure’ for a total of 78 hrs.
(§2) The system upon which to determine the effects of DNA repair modulators consisted of the CRISPR/SpCas9 modules with DPH1 20 mer gRNA, transfected into MCF7 cells and subjected to subsequent DT and PM selection as described in the previous Examples. Frequencies of DTr, PMr, and double-resistant colonies were recorded to reflect gene inactivation and cassette integration events.

MCF-7 cells [3] = assay: PM resistant colony count of MCF-7 exposed to SCR7 and/or RS-1 during SpCas9-mediated DPH1 editing; settings: for mean PMr colonies #seeded cells: 80,000: SpCas9 Dph1 gRNA (20 mer); for mean PMr colonies #seeded cells: 80,000 / % PMr relative to DTr colonies: RS-1 8 μM, SCR7 1 μM; for % PMr relative to DTr colonies: SpCas9 Dph1 gRNA
Description: as §1
SCR7 (1 μM final conc.) or RS-1 (8 μM final conc.) or SCR7+RS-1 (1 μM+8 μM final conc.) were added to MCF7 cells 4 hrs before transfection of the gene editing modules in the ‘early exposure’ setting. […]
as §2

DPH2 gene [4] = assay: PM resistant colony count after DPH2 gene editing; settings: DPH2 assay (integr. vs. k.o.); for # of PM resistant colonies (40,000 seeded cells): MCF7, individual samples A-D
Description: (§3) MCF7 cells (Brooks, et al. 1973) were originally obtained from ATCC (subsequently propagated in an in-house cell bank) and maintained in RPMI […] medium supplemented with 10% FCS, 2 mM L-Glutamine and penicillin/streptomycin at 37° C. and 85% humidity. For transfection of plasmids harboring gene-editing modules, 3,000,000 cells were seeded in a 10 cm diameter culture dish and cultivated at 37° C. and humidified 5% CO2. 24 h after seeding, cells were transfected with 20 μg total DNA using JetPEI (Polyplus) according to the manufacturer's protocol but with an N/P ratio of 6:1. Transfection efficiency was determined after 24 h by flow cytometry (FACS Calibur, BD biosciences) of cells that were transfected with a modified eGFP expression plasmid (Zhang, et al. 1996).
(§4) Plasmids encoding CRISPR/Cas9 gene-editing entities (i.e. knock-out and integration systems) against Dph1 (gRNA target sequence: […] (SEQ ID NO: 01) derived from RefSeq: NM_001383) and Dph2 (gRNA target sequence: […] (SEQ ID NO: 02) derived from RefSeq: NM_001039589, NM_001384), and scrambled control (gRNA sequence: […] (SEQ ID NO: 03)) were obtained from OriGene. This system comprises one plasmid expressing a ˜100 nt gRNA under control of a U6 promoter as well as Cas9 nuclease under control of a CMV promoter and a Donor plasmid with a promoter-less GFP/PM expression cassette flanked by homologous arms to the target gene (Dph1 or Dph2). Additional Dph1 gRNA sequence variants of different sizes (OriGene) […]
(§5) MCF7 cells which have all chromosomal copies of DPH1 or DPH2 inactivated are resistant to diphtheria toxin (Stahl, et al. 2015). Thus, occurrence and frequency of toxin resistant cells/colonies upon CRISPR/Cas inflicted gene inactivation provides a measure for efficiency of inactivation of all gene copies. Therefore, MCF/cells were transfected as described in Example 1 with (i) a GFP expression plasmid as transfection control, (ii) the CRISPR/Cas9 Dph1 or Dph2 knock-out/integration system and (iii) knock-out/integration entities containing a scrambled gRNA to determine Cas9 independent integration frequencies. After determination of transfection efficiency, cells were seeded in 6-well plates. For quantification of homozygous knock-out events by DT 20000 cells were seeded and for quantification of integration events by PM or both events 40000 cells were seeded. RPMI medium was exchanged by RPMI medium containing DT or PM or both toxins 3 days after cell seeding. Exchange of medium was repeated every 2-3 days until all dead cells were removed from the plates and actively growing colonies could be detected via microscopic inspection. Thereafter (between day 12 and day 14 after start of toxin exposure), cells were washed 3 times with PBS and subsequently stained with ice cold methylene blue (0.2% in 50% EtOH). Methylene blue solution was subsequently removed and the plates were carefully washed under running water. Finally, cell colonies were counted under the microscope with a 5 mm grid foil.
CRISPR/Cas module for targeted integration contains a puromycin (PM) resistance gene expression cassette without promoter to avoid transient expression. Thus, detection of integration of recombinant sequences into the genome was detected by determining sensitivity of cells towards PM. A concentration of […] PM (which quantitatively eliminates wildtype MCF7 cells) was applied to select MCF7 cells with stably integrated expression cassettes. PM-resistant colonies selected with the same procedure as described above for the DT selection and visualized and quantified (between 12 and 14 days after start of selection) in the same manner as described above for toxin resistant colonies. Number of PM resistant colonies obtained with non-target guide sequences (scrambled gRNA, FIG. 1) reflect the nonspecific integration background. […]

DPH2 gene [5] = assay: DT resistant colony count after DPH2 gene editing; settings: DPH2 assay (integr. vs. k.o.); for # of DT resistant colonies (40,000 seeded cells): MCF7, individual samples A-D
Description: as §3, §4, §5

[6] = compound added 4 hr before transfection
[7] = compound added 18 hr after transfection
[8] = compound added 4 hrs before transfection
[9] = compound added 18 hrs after transfection
[10] = listed as Dph2 CRISPR Cas9 gRNA

Compound | mean DTr colonies #seeded cells: 40,000 (MCF-7 cells [1]) | effect on the growth or viability of MCF7 cells at the applied dose (MCF7) | mean DTr colonies #seeded cells: 40,000 (MCF-7 cells [2]) | % DT resistant colonies relative to untreated control (MCF-7 cells [2]; [6]) [%] | gRNA specific DT-r colonies (gRNA-scRNA) (MCF-7 cells [2]) | % DT resistant colonies relative to untreated control (MCF-7 cells [2]; [7]) | Mean DT resistant colonies (4 × 40.000 seeded cells) (MCF-7 cells [2]) | mean PMr colonies #seeded cells: 80,000 (MCF-7 cells [3]; [8]) | mean PMr colonies #seeded cells: 80,000 (MCF-7 cells [3]; [9]) | % PMr relative to DTr colonies (MCF-7 cells [3]; [9]) [%] | % PM resistant colonies relative to untreated control (MCF-7 cells [3]; [6]) [%*] | gRNA specific PM-r colonies (gRNA-scRNA) (MCF-7 cells [3]; [8]) | % PM resistant colonies relative to untreated control (MCF-7 cells [3]; [7]) [%] | further results
O=C(Nc1ccc(Br)cc1)c1ccc(Br)c(S(=O)(=O)NCc2ccccc2)c1 [RS-1, RAD51-stimulatory compound 1] | 512.5 | no effect on the growth or viability; also recorded: does not inflict growth inhibitory or toxic effects | 201.5 | 100 | 201.5 | 100% | 0 | 14 | 15.3 | 3.0 | 165 | 10.2 | 76 | –
20 mer SpCas9 Dph2 gRNA: Plasmids encoding SpCas9 and Dph2 gRNA (target GATGTTTAGCAGCCCTGCCG, SEQ ID NO: 02) plus donor plasmid | – | – | – | – | – | – | – | – | – | – | – | – | – | # of PM resistant colonies (40,000 seeded cells) (unheaded second sub-column: mean) (DPH2 gene [4]; MCF7): 1.5; # of PM resistant colonies (40,000 seeded cells) (DPH2 gene [4]): 0 (2×) and 1 and 3; # of PM resistant colonies (40,000 seeded cells) (DPH2 gene [4]; [10]): 0 (2×) and 1 and 3; # of DT resistant colonies (40,000 seeded cells) (unheaded second sub-column: mean) (DPH2 gene [5]; MCF7): 130; # of DT resistant colonies (40,000 seeded cells) (DPH2 gene [5]): 162 and 227 (2×) and 215; # of DT resistant colonies (40,000 seeded cells) (DPH2 gene [5]; [10]): 162 and 227 (2×) and 215
SCR7 | 488.8 | does not inflict growth inhibitory or toxic effects | 205.3 | 102 | 205.3 | 95%* | 0 | 13.3 | 25 | 5.1 | 156 | 9.5 | 125 | effect on the growth or viability of MCF7 cells at the applied dose (MCF7; listed as Scr7): no effect on the growth or viability; increase of the number of PMr colonies compared to untreated control (MCF-7 cells [3]; compound 4 hrs before until 72 hr after transfection): approx. 2 fold
